Measurements taken from patent US6358688B1, “Immortalized human middle ear epithelial cell lines” (House Ear Institute, priority 1999, dated 2002).
Blank lines part the entries; values can stand above or below the molecule they belong to.

Columns and labels:
[1] = test system: HPV-transformed human middle ear epithelial cell line HMEEC-1; assay: G418 selection of cultured cells; type: cell-based; conditions: G418 0.4 mg/ml, 2 and 7 days post addition
Procedure: (§1) Passage 3 human middle ear epithelial cell cultures (at 50-70% confluence) were infected with 1 ml of virus stock diluted in 9 ml of fresh SFM-HG for 48 hours. The virus was then removed and the medium was replaced with fresh SFM-HG. The cells were allowed to proliferate and once at 70% confluence, they were trypsinized and re-seeded in fresh SFM-HG medium containing G418 (Gibco-BRL, Gaithersburg, […].) at a concentration of 0.4 mg/ml.
(§2) Cells were photographed prior to selection, at 2 days and at 7 days post G418 addition (panels, a, b and c, respectively). […]

[2] = test system: primary human middle ear epithelial cells; assay: G418 selection of cultured cells; type: cell-based; conditions: 2 and 7 days post G418 addition
Procedure: as §1, §2

MUC2 mRNA = assay: RT-PCR of mucin mRNA expression after retinoic acid; type: cell-based, human; conditions: primary cultures
Procedure: Polymerase chain reaction (PCR) assays were performed essentially following the package insert of the commercially available Gene-Amp kit (document No. 55635-6/89, available from Perkin-Elmer/Cetus, Emeryville, Calif.). The following reagents were mixed in a 0.5 mL polypropylene tube and used in performing PCR:
After mixing, the reaction mixture was overlayed with a drop of mineral oil to 30 cycles of PCR, with the following cycle profile: 30 second denaturation, 1 minute annealing and 2 minute extension. The PCR products were run on a 1.2% TAE agarose gel.
Expression of various genes was confirmed using the following PCR primers specific for: […]

MEK1/2 (MAPK kinase) = assay: Assay for MEK (phospho-MEK1/2 antibody detection); type: cell-based, human; conditions: HMEEC-1 cells treated for 5, 15 and 45 minutes
Procedure: Cells were treated with IL-1 alpha for 5, 15 and 45 minutes. The MEK assay was done according to the manufacturer's protocol (PhosphoPlus, MEK1/2 Antibody Kit; New England BioLabs, Beverly, Mass.). Antibodies specific to the phosphorylated (phospho-MEK1/2) and unphosphorylated (MEK1/2) MEK protein were used to distinguish between the phosphorylated and unphosphorylated forms of the protein.

Molecule: CN[C@@H]1[C@@H](O)[C@@H](O[C@@H]2[C@@H](O)[C@H](O[C@H]3O[C@H]([C@@H](C)O)[C@@H](O)[C@H](O)[C@H]3N)[C@@H](N)C[C@H]2N)OC[C@]1(C)O [G418]
Response of cells to G418 [1]: resistance
Response of cells to G418 [2]: sensitivity

Molecule: CC1=C(/C=C/C(C)=C/C=C/C(C)=C/C(=O)O)C(C)(C)CCC1 [Retinoic acid]
MUC2 expression in response to RA (MUC2 mRNA): no effect

Activation (phosphorylation) of MEK1/2 (MEK1/2 (MAPK kinase)): activates
Molecule: IL-1 alpha: cytokine used to treat HMEEC-1 cells
